Measured values from ChEMBL document CHEMBL5321227, “Lysosome-targeting phenalenones as efficient type I/II photosensitizers for anticancer photodynamic therapy” (Eur J Med Chem, 2023).
Activity calls are given as the source filed them. No cut-off for these calls is given here.

How the values were obtained:
[1] = Photostability of compound in EtOH assessed as compound decomposition at 50 uM incubated for 5 to 20 mins under photoirradiation with 550nm and 10 J/cm^2 LED light by UV-visible spectroscopic analysis; assay type: physicochemical; conditions: time 5-20 min
4T1 [2] = assay: Antitumor activity against mouse 4T1 cells xenografted in BALB/c mouse assessed as tumor growth inhibition at 5 mg/kg,IT(Intratumoral) for 14 days relative to control; assay type: functional, organism-based; conditions: time 14.0 day
[3] = Drug uptake BALB/c mouse xenografted with mouse 4T1 cells assessed as increase in fluorescence signal in tumor at 5 mg/kg,IT(Intratumoral) and measured for 6 to 24 hrs by fluorescence imaging analysis; assay type: ADME, organism-based, Neoplasm; conditions: in vivo, other, time 6-24 hrs
4T1 [4] = assay: Anticancer activity against mouse 4T1 cells assessed as fold increase in cleaved caspase-3 protein expression at 1 uM preincubated for 2 hrs followed by photoirradiation with 500 to 700nm and 12 J/cm^2 LED light and measured after 24 hrs by Western blot analysis relative to control; assay type: functional; conditions: time 26 hrs
4T1 [5] = assay: Anticancer activity against mouse 4T1 cells assessed as fold increase in gamma-H2A.X protein expression at 1 uM preincubated for 2 hrs followed by photoirradiation with 500 to 700nm and 12 J/cm^2 LED light and measured after 24 hrs by Western blot analysis relative to control; assay type: functional; conditions: time 26 hrs
4T1 [6] = assay: Anticancer activity against mouse 4T1 cells assessed as reduction in cell viability preincubated for 2 hrs followed by photoirradiation with 500 to 700nm and 12 J/cm^2 LED light for 24 hrs by CCK-8 assay; assay type: functional, cell-based; conditions: 4T1, light or radiation study
[7] = Toxicity in BALB/c mouse xenografted with mouse 4T1 cells assessed as histopathological lesion in lung at 5 mg/kg,IT(Intratumoral) for 14 days by Hematoxylin and Eosin staining based microscopy; assay type: organism-based; conditions: in vivo, other, 336 h, time 14 day
[8] = Drug uptake in kidney of BALB/c mouse xenografted with mouse 4T1 cells at 5 mg/kg,IT(Intratumoral) and measured after 6 hrs by fluorescence imaging analysis; assay type: ADME, organism-based; conditions: in vivo, other
[9] = Drug uptake in tumor of BALB/c mouse xenografted with mouse 4T1 cells at 5 mg/kg,IT(Intratumoral) and measured for 6 to 72 hrs by fluorescence imaging analysis; assay type: ADME, organism-based, Neoplasm; conditions: in vivo, other, time 6-72 hrs
[10] = Stability of compound in GSH at 10 uM incubated for 30 mins by fluorescence assay; assay type: physicochemical; conditions: 0.5 h
[11] = Toxicity in BALB/c mouse xenografted with mouse 4T1 cells assessed as body weight change at 5 mg/kg,IT(Intratumoral) for 14 days; assay type: organism-based; conditions: in vivo, other, 336 h, time 14 day
[12] = Toxicity in BALB/c mouse xenografted with mouse 4T1 cells assessed as tissue destruction with large spaces in spleen at 5 mg/kg,IT(Intratumoral) for 14 days followed by photoirradiation with 500 to 700nm light (0.5 W) for 6 hrs by Hematoxylin and Eosin staining based microscopy; assay type: organism-based; conditions: in vivo, other, 342 h, time 14.25 day
[13] = Drug uptake BALB/c mouse xenografted with mouse 4T1 cells assessed as maximum fluorescence intensity in tumor at 5 mg/kg,IT(Intratumoral) and measured at 6 hrs by fluorescence imaging analysis; assay type: ADME, organism-based, Neoplasm; conditions: in vivo, other
[14] = Drug uptake in tumor BALB/c mouse xenografted with mouse 4T1 cells at 5 mg/kg,IT(Intratumoral) and measured after 6 hrs by fluorescence imaging analysis; assay type: ADME, organism-based, Neoplasm; conditions: in vivo, other
[15] = Drug uptake in spleen of BALB/c mouse xenografted with mouse 4T1 cells at 5 mg/kg,IT(Intratumoral) and measured after 6 hrs by fluorescence imaging analysis; assay type: ADME, organism-based; conditions: in vivo, other
[16] = Toxicity in BALB/c mouse xenografted with mouse 4T1 cells assessed as histopathological lesion in kidney at 5 mg/kg,IT(Intratumoral) for 14 days by Hematoxylin and Eosin staining based microscopy; assay type: organism-based; conditions: in vivo, other, 336 h, time 14 day
[17] = Stability of compound in H2O2 at 10 uM incubated for 30 mins by fluorescence assay; assay type: physicochemical; conditions: 0.5 h
MDA-MB-231 [18] = assay: Anticancer activity against human MDA-MB-231 cells assessed as number of dead cells at 2.5 uM preincubated for 12 hrs followed by photoirradiation with 500 to 700nm and 12 J/cm^2 LED light for 10 mins by calcein-AM and propidium iodide staining based flow cytometry; assay type: functional, cell-based; conditions: time 12.2 hrs
4T1 [19] = assay: Anticancer activity against mouse 4T1 cells assessed as reduction in cell viability at 0.01 to 10 uM incubated for 24 hrs by CCK-8 assay; assay type: functional, cell-based; conditions: dose 0.01-10 µM
[20] = Drug metabolism in human MDA-MB-231 cells assessed as increase in SR expression at 5 uM incubated for 2 hrs by flow cytometry analysis; assay type: ADME, cell-based; conditions: mda-mb-231, 2 h
[21] = Toxicity in BALB/c mouse xenografted with mouse 4T1 cells assessed as histopathological lesion in liver at 5 mg/kg,IT(Intratumoral) for 14 days by Hematoxylin and Eosin staining based microscopy; assay type: organism-based; conditions: in vivo, other, 336 h, time 14 day
[22] = Drug metabolism in carboxylesterase (unknown origin) assessed as formation of active photosensitizer 6-amino-5-iodo-1H-phenalen-1-one at 10 uM under by LC-MS/MS analysis assay; assay type: ADME; conditions: human
[23] = Drug metabolism in mouse 4T1 cells assessed as increase in carboxylesterase mediated 6-amino-5-iodo-1H-phenalen-1-one release at 5 uM incubated for 2 hrs by confocal laser scanning microscopy; assay type: ADME, cell-based; conditions: 4t1, 2 h
[24] = Toxicity in BALB/c mouse xenografted with mouse 4T1 cells assessed as tissue destruction with large spaces in lung at 5 mg/kg,IT(Intratumoral) for 14 days followed by photoirradiation with 500 to 700nm light (0.5 W) for 6 hrs by Hematoxylin and Eosin staining based microscopy; assay type: organism-based; conditions: in vivo, other, 342 h, time 14.25 day
[25] = Drug uptake BALB/c mouse xenografted with mouse 4T1 cells assessed as increase in fluorescence signal in tumor at 5 mg/kg,IT(Intratumoral) and measured for 1 to 6 hrs by fluorescence imaging analysis; assay type: ADME, organism-based, Neoplasm; conditions: in vivo, other, time 1-6 hrs
[26] = Toxicity in BALB/c mouse xenografted with mouse 4T1 cells assessed as body weight change at 5 mg/kg,IT(Intratumoral) for 14 days followed by photoirradiation with 500 to 700nm light (0.5 W) for 6 hrs; assay type: organism-based; conditions: in vivo, other, 342 h, time 14.25 day
MDA-MB-231 [27] = assay: Anticancer activity against human MDA-MB-231 cells assessed as reduction in cell viability at 0.01 to 10 uM incubated for 24 hrs by CCK-8 assay; assay type: functional, cell-based; conditions: dose 0.01-10 µM
[28] = Stability of compound in various pH; assay type: physicochemical
[29] = Toxicity in BALB/c mouse xenografted with mouse 4T1 cells assessed as tissue destruction with large spaces in heart at 5 mg/kg,IT(Intratumoral) for 14 days followed by photoirradiation with 500 to 700nm light (0.5 W) for 6 hrs by Hematoxylin and Eosin staining based microscopy; assay type: organism-based; conditions: in vivo, other, 342 h, time 14.25 day
[30] = Drug uptake in liver of BALB/c mouse xenografted with mouse 4T1 cells at 5 mg/kg,IT(Intratumoral) and measured after 6 hrs by fluorescence imaging analysis; assay type: ADME, organism-based; conditions: in vivo, other
[31] = Toxicity in BALB/c mouse xenografted with mouse 4T1 cells assessed as histopathological lesion in spleen at 5 mg/kg,IT(Intratumoral) for 14 days by Hematoxylin and Eosin staining based microscopy; assay type: organism-based; conditions: in vivo, other, 336 h, time 14 day
[32] = Toxicity in BALB/c mouse xenografted with mouse 4T1 cells assessed as histopathological lesion in tumor at 5 mg/kg,IT(Intratumoral) for 14 days by Hematoxylin and Eosin staining based microscopy; assay type: organism-based; conditions: in vivo, other, 336 h, time 14 day

Q: For `O=C(CCl)Nc1c(I)cc2c3c(cccc13)C(=O)C=C2`, which Stability [1] is on record?
A: Its Stability is “Stable”.

Q: And the Activity (4T1 [2])?
A: The Activity was “Active”.

Q: And the Drug uptake [3]?
A: The Drug uptake was “Not Active”.

Q: And the “fold change (FC)” value (4T1 [4])?
A: The value was 3.45.

Q: What about the “fold change (FC)” value (4T1 [5]) of the same compound?
A: The value was 2.12.

Q: What about the IC50 (4T1 [6]) of the same compound?
A: The IC50 was 1310 nM.

Q: And the Activity [7]?
A: Its Activity is “Non-Toxic”.

Q: What about the Drug uptake [8] of the same compound?
A: Its Drug uptake is “Active”.

Q: What about the Drug uptake [9] of the same compound?
A: The Drug uptake was “Not Active”.

Q: And the Stability [10]?
A: Its Stability is “Stable”.

Q: And the Activity [11]?
A: The Activity was “Toxic”.

Q: And the Activity [12]?
A: Its Activity is “Toxic”.

Q: And the Drug uptake [13]?
A: The Drug uptake was “Active”.

Q: And the Drug uptake [14]?
A: The Drug uptake was “Active”.

Q: What about the Drug uptake [15] of the same compound?
A: The Drug uptake was “Not Active”.

Q: And the Activity [16]?
A: The Activity was “Non-Toxic”.

Q: What about the Stability [17] of the same compound?
A: The Stability was “Stable”.

Q: And the Activity (MDA-MB-231 [18])?
A: The Activity was “Active”.

Q: And the Activity (4T1 [19])?
A: Its Activity is “Active”.

Q: And the Drug metabolism [20]?
A: Its Drug metabolism is “Metabolite_Detected”.

Q: And the Activity [21]?
A: Its Activity is “Non-Toxic”.

Q: What about the Drug metabolism [22] of the same compound?
A: The Drug metabolism was “Metabolite_Detected”.

Q: What about the Drug metabolism [23] of the same compound?
A: The Drug metabolism was “Metabolite_Detected”.

Q: What about the Activity [24] of the same compound?
A: The Activity was “Toxic”.

Q: What about the Drug uptake [25] of the same compound?
A: The Drug uptake was “Active”.

Q: What about the Activity [26] of the same compound?
A: Its Activity is “Toxic”.

Q: What about the Activity (MDA-MB-231 [27]) of the same compound?
A: The Activity was “Active”.

Q: And the Stability [28]?
A: The Stability was “Stable”.

Q: What about the Activity [29] of the same compound?
A: The Activity was “Toxic”.

Q: And the Drug uptake [30]?
A: Its Drug uptake is “Active”.

Q: What about the Activity [31] of the same compound?
A: Its Activity is “Non-Toxic”.

Q: And the Activity [32]?
A: The Activity was “Non-Toxic”.
